Laboratory results from ChEMBL document CHEMBL3804797, “Discovery of Aryl Sulfonamides as Isoform-Selective Inhibitors of NaV1.7 with Efficacy in Rodent Pain Models” (ACS Med Chem Lett, 2016).
Values after ≈ are worked out from the molar mass of the structure shown. One block for each molecule: values may come before it. Active and inactive are the calls of the source. No cut-off for these calls is given here.

Legend:
[1] = target: Sodium channel protein type 5 subunit alpha (Homo sapiens, UniProt Q14524); assay: Inhibition of full length human Nav1.5 channel expressed in HEK cells co-expressing human sodium channel subunit beta1 at holding potential -60 mV by automated voltage clamp analysis; format: cell-based, HEK293
Homo sapiens = organism: Homo sapiens; assay: Selectivity ratio of IC50 for human Nav1.5 to IC50 for human Nav1.7
[2] = target: Sodium channel protein type 9 subunit alpha (Rattus norvegicus, UniProt O08562); assay: Inhibition of rat Nav1.7 channel by automated voltage clamp analysis
[3] = Selectivity ratio of IC50 for rat Nav1.7 to IC50 for human Nav1.7
hERG (KCNH2) = hERG (KCNH2) (Homo sapiens, UniProt Q12809); assay: Displacement of [3H] astemizole from human ERG channel at 5 uM; settings: probe [3H] astemizole
[4] = target: T1, Sodium channel protein type 9 subunit alpha (Homo sapiens, UniProt Q15858); assay: Inhibition of full length human Nav1.7 channel expressed in HEK cells co-expressing human sodium channel subunit beta1 at holding potential -60 mV by automated voltage clamp analysis; format: cell-based, HEK293
[5] = target: Sodium channel protein type 1 subunit alpha (Homo sapiens, UniProt P35498); assay: Inhibition of full length human Nav1.1 channel expressed in HEK cells co-expressing human sodium channel subunit beta1 at holding potential -40 mV by automated voltage clamp analysis; format: cell-based, HEK293
[6] = target: Sodium channel protein type 2 subunit alpha (Homo sapiens, UniProt Q99250); assay: Inhibition of full length human Nav1.2 channel expressed in HEK cells co-expressing human sodium channel subunit beta1 at holding potential -35 mV by automated voltage clamp analysis; format: cell-based, HEK293
[7] = target: Sodium channel protein type 8 subunit alpha (Homo sapiens, UniProt Q9UQD0); assay: Inhibition of full length human Nav1.6 channel expressed in HEK cells co-expressing human sodium channel subunit beta1 at holding potential -35 mV by automated voltage clamp analysis; format: cell-based, HEK293
[8] = target: Sodium channel protein type 9 subunit alpha (Mus musculus, UniProt Q62205); assay: Inhibition of Nav1.7 channel in mouse CAD cells by whole-cell patch clamp assay; format: cell-based
Cytochrome P450 2C9 = Cytochrome P450 2C9 (Homo sapiens, UniProt P11712); assay: Inhibition of CYP2C9 in human liver microsomes using warfarin as substrate after 30 mins by LC/MS/MS analysis; format: ADME
Cytochrome P450 3A4 = Cytochrome P450 3A4 (Homo sapiens, UniProt P08684); assay: Inhibition of CYP3A4 in human liver microsomes using testosterone/midazolam as substrate after 30 mins by LC/MS/MS analysis; format: ADME
Cytochrome P450 1A2 = target: T2, Cytochrome P450 1A2 (Homo sapiens, UniProt P05177); assay: Inhibition of CYP1A2 in human liver microsomes using phenacetin as substrate after 30 mins by LC/MS/MS analysis; format: ADME
T2 sequence (P05177 whole entry): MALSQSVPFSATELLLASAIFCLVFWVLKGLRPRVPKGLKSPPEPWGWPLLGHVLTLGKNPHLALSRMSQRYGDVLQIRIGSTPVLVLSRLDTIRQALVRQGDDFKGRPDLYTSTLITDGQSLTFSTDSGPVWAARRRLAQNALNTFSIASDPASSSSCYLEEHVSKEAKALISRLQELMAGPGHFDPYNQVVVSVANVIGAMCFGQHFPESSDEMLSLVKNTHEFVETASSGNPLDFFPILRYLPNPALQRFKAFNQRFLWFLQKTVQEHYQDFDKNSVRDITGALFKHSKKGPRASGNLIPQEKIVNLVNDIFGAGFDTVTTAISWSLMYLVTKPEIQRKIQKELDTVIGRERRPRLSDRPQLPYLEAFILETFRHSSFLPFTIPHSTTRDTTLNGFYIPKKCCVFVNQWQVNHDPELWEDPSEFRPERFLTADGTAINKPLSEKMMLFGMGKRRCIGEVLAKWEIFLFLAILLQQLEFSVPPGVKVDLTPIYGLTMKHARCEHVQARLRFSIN

Cytochrome P450 2D6 = Cytochrome P450 2D6 (Homo sapiens, UniProt P10635); assay: Inhibition of CYP2D6 in human liver microsomes using dextromethorphan as substrate after 30 mins by LC/MS/MS analysis; format: ADME
[9] = Kinetic solubility of compound at pH 7.2; format: physicochemical; settings: buffer, read-out: Kinetic_solubility
[10] = Apparent permeability from apical to basolateral side in MDCK1 cells at 10 uM incubated for 2 hrs; format: ADME, cell-based, Canis lupus familiaris; settings: dog, MDCK
[11] = Efflux ratio of apparent permeability from apical to basolateral side to basolateral to apical side in MDCK1 cells expressing human MDR1 at 10 uM; format: ADME, cell-based, Canis lupus familiaris; settings: dog, mdck1, 10 µM
[12] = Plasma protein binding in rat at 10 uM incubated for 20 hrs by HPLC-MS/MS analysis; format: ADME, cell-free; settings: read-out: PPB (converted)
[13] = Cmax in Sprague-Dawley rat at 1 mg/kg, iv; format: ADME, organism-based; design: dose 1 mg/kg, route intravenous; settings: in vivo
[14] = AUC (0 to infinity) in Sprague-Dawley rat at 1 mg/kg, iv; format: ADME, organism-based; design: dose 1 mg/kg, time infinity, route intravenous; settings: in vivo
[15] = Half life in Sprague-Dawley rat at 1 mg/kg, iv; format: ADME, organism-based; settings: in vivo
[16] = Plasma clearance in Sprague-Dawley rat at 1 mg/kg, iv; format: ADME, organism-based
[17] = Volume of distribution at steady state in Sprague-Dawley rat at 1 mg/kg, iv; format: ADME, organism-based; settings: in vivo, read-out: Vdss
[18] = Cmax in Sprague-Dawley rat at 20 mg/kg, ip; format: ADME, organism-based; design: dose 20 mg/kg, route intraperitoneal; settings: in vivo
[19] = Tmax in Sprague-Dawley rat at 20 mg/kg, ip; format: ADME, organism-based; settings: in vivo
[20] = AUC (0 to infinity) in Sprague-Dawley rat at 20 mg/kg, ip; format: ADME, organism-based; design: dose 20 mg/kg, route intraperitoneal, time infinity; settings: in vivo
[21] = Half life in Sprague-Dawley rat at 20 mg/kg, ip; format: ADME, organism-based; settings: in vivo
[22] = Ratio of drug uptake in brain to plasma in Sprague-Dawley rat at 20 mg/kg, ip by UHPLC analysis; format: ADME, organism-based; settings: read-out: BPR
[23] = target: T1, Sodium channel protein type 9 subunit alpha; assay: Inhibition of full length human Nav1.7 channel expressed in HEK cells co-expressing human sodium channel subunit beta3 at -150 mV by manual voltage clamp analysis; format: cell-based, HEK293
[24] = Dissociation constant, pKa of the compound at 100 uM by UV-spectrophotometric titration method; format: physicochemical
Rattus norvegicus [25] = assay: Analgesic activity in ip dosed rat assessed as inhibition of formalin-induced late phase pain response dosed 2 hrs prior to formalin challenge measured over 10 to 40 mins by automated nociception analysis; format: functional, organism-based
Rattus norvegicus [26] = assay: Analgesic activity in rat assessed as inhibition of formalin-induced late phase pain response at 30 mg/kg,ip dosed 2 hrs prior to formalin challenge measured over 10 to 40 mins by automated nociception analysis; format: functional, organism-based
Rattus norvegicus [27] = assay: Analgesic activity in rat assessed as delay in onset of formalin-induced pain response at 100 mg/kg,ip dosed 2 hrs prior to formalin challenge measured over 60 mins by automated nociception analysis; format: functional, organism-based
Rattus norvegicus [28] = assay: Analgesic activity in rat assessed as inhibition of aconitine-induced pain response at 30 mg/kg, ip dosed 2 hrs prior to aconitine challenge measured over 60 mins by automated nociception analysis relative to control; format: functional, organism-based
Mus musculus [29] = assay: Analgesic activity in mouse assessed as reduction in CFA-induced cold allodynia at 10 mg/kg, ip administered 1 hr prior to acetone challenge on day 2 post CFA injection measured for 120 secs relative to vehicle control; format: functional, organism-based
Mus musculus [30] = assay: Analgesic activity in ip dosed mouse assessed as reduction in CFA-induced cold allodynia administered 1 hr prior to acetone challenge on day 2 post CFA injection measured for 120 secs relative to vehicle control; format: functional, organism-based
[31] = target: Sodium channel protein type 4 subunit alpha (Homo sapiens, UniProt P35499); assay: Inhibition of full length human Nav1.4 channel expressed in HEK cells co-expressing human sodium channel subunit beta1 by automated voltage clamp analysis; format: cell-based, HEK293
[32] = target: Sodium channel protein type 10 subunit alpha (Homo sapiens, UniProt Q9Y5Y9); assay: Inhibition of full length human Nav1.8 channel expressed in HEK cells co-expressing human sodium channel subunit beta3 at holding potential -20 mV by manual voltage clamp analysis; format: cell-based, HEK293
[33] = target: Sodium channel protein type 3 subunit alpha (Homo sapiens, UniProt Q9NY46); assay: Inhibition of full length human Nav1.3 channel expressed in HEK cells co-expressing human sodium channel subunit beta1 at holding potential -50 mV by automated voltage clamp analysis; format: cell-based, HEK293

Sodium channel protein type 5 subunit alpha, sequence (Q14524 whole entry): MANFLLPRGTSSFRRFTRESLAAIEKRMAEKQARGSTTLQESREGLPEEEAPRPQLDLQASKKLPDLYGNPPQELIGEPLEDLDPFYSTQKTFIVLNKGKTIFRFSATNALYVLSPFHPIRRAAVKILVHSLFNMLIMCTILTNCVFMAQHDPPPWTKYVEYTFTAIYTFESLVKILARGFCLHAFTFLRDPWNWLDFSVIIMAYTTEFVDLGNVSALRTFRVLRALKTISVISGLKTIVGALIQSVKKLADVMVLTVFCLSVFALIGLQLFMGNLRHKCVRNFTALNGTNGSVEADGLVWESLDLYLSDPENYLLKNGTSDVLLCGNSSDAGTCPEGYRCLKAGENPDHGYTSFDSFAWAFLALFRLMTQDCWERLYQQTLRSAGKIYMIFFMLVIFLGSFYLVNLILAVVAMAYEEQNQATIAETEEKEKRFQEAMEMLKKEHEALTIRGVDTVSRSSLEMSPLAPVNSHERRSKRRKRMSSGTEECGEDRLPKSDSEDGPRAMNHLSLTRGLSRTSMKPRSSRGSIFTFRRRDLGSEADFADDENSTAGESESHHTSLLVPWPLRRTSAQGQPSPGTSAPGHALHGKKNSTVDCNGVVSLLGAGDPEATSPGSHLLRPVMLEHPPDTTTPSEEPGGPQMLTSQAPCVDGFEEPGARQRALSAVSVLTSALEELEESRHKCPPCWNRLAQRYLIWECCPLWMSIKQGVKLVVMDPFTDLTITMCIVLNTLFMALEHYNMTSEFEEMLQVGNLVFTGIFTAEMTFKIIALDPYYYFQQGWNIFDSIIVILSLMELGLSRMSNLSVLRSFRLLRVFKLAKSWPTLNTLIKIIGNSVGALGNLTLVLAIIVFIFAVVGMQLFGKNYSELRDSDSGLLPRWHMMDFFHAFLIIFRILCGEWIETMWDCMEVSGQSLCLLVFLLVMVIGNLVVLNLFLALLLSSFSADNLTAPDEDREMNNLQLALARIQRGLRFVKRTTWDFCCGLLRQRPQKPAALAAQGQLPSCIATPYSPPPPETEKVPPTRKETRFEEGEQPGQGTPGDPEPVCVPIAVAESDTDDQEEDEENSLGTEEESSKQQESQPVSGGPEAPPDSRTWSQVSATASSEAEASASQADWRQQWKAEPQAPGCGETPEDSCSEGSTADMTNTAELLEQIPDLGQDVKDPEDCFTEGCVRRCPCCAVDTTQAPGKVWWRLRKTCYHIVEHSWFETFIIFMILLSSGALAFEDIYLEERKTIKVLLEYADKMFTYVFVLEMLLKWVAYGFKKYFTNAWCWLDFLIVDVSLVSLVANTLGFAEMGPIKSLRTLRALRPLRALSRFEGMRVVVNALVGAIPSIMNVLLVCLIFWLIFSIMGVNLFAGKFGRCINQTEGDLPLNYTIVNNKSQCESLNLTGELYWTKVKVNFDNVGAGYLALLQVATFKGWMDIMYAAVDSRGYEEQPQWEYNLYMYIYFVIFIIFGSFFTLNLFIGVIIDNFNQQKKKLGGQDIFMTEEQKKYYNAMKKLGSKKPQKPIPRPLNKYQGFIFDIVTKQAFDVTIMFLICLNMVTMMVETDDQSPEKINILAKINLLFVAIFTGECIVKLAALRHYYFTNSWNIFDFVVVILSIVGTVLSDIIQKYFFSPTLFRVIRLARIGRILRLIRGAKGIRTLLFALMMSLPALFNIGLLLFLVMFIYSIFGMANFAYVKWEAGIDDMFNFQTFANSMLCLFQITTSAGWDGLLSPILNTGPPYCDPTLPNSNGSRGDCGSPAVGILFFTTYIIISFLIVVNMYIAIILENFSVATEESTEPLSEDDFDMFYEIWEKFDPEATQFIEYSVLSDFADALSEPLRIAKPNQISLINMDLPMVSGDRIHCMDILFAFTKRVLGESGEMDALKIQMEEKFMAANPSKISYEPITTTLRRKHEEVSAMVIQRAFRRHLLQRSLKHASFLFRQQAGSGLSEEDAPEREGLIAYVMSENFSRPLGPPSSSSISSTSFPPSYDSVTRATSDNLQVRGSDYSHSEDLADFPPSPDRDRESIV
T1 sequence (Q15858 whole entry): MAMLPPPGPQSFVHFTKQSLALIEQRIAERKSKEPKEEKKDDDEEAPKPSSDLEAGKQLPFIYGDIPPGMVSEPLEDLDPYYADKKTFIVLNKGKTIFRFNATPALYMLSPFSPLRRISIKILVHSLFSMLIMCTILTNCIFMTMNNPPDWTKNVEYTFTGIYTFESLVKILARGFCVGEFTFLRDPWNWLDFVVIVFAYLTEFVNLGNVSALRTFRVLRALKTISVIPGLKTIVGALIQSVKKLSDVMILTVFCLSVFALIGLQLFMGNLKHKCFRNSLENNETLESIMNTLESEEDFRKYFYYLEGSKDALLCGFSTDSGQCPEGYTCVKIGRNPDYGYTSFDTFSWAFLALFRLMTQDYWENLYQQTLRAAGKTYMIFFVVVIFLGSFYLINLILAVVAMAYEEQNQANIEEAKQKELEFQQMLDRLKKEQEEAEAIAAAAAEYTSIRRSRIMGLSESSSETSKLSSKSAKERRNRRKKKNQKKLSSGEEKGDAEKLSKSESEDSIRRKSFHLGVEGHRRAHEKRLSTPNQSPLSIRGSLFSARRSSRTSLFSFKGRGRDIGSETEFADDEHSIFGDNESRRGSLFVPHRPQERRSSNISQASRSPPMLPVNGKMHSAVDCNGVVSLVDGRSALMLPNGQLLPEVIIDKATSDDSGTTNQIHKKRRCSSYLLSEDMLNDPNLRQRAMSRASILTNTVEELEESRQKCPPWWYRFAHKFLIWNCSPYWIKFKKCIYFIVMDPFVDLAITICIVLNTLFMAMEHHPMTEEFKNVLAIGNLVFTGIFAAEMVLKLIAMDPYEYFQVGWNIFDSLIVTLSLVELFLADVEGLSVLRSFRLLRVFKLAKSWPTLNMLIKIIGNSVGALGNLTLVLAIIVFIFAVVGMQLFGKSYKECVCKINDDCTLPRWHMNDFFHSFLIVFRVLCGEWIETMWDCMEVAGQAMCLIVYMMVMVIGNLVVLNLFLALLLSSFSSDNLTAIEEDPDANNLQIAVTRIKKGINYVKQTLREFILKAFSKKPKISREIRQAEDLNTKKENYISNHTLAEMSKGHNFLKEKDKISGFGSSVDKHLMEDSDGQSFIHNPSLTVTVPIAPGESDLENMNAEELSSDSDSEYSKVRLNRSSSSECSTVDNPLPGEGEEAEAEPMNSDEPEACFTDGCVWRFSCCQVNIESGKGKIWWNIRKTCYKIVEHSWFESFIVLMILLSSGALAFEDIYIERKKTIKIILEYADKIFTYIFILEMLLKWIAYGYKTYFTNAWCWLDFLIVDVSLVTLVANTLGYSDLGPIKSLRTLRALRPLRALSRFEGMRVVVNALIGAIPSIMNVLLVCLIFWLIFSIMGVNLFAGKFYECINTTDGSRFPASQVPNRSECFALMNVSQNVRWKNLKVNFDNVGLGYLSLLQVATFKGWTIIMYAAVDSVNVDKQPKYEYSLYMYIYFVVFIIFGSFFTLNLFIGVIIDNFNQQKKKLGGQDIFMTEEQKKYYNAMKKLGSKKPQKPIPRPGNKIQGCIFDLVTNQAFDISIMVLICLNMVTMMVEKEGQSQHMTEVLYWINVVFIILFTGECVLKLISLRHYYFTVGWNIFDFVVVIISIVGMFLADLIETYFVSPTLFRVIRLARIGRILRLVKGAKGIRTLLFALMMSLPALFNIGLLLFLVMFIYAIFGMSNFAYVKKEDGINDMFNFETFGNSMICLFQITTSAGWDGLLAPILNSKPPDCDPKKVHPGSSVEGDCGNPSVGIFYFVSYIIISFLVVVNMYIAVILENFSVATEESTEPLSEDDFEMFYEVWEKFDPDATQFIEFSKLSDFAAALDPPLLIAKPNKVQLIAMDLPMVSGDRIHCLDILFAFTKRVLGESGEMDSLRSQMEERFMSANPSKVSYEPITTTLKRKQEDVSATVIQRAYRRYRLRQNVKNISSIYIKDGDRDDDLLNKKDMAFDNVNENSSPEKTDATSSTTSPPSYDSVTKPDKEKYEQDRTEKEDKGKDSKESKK
hERG (KCNH2), sequence (Q12809 whole entry): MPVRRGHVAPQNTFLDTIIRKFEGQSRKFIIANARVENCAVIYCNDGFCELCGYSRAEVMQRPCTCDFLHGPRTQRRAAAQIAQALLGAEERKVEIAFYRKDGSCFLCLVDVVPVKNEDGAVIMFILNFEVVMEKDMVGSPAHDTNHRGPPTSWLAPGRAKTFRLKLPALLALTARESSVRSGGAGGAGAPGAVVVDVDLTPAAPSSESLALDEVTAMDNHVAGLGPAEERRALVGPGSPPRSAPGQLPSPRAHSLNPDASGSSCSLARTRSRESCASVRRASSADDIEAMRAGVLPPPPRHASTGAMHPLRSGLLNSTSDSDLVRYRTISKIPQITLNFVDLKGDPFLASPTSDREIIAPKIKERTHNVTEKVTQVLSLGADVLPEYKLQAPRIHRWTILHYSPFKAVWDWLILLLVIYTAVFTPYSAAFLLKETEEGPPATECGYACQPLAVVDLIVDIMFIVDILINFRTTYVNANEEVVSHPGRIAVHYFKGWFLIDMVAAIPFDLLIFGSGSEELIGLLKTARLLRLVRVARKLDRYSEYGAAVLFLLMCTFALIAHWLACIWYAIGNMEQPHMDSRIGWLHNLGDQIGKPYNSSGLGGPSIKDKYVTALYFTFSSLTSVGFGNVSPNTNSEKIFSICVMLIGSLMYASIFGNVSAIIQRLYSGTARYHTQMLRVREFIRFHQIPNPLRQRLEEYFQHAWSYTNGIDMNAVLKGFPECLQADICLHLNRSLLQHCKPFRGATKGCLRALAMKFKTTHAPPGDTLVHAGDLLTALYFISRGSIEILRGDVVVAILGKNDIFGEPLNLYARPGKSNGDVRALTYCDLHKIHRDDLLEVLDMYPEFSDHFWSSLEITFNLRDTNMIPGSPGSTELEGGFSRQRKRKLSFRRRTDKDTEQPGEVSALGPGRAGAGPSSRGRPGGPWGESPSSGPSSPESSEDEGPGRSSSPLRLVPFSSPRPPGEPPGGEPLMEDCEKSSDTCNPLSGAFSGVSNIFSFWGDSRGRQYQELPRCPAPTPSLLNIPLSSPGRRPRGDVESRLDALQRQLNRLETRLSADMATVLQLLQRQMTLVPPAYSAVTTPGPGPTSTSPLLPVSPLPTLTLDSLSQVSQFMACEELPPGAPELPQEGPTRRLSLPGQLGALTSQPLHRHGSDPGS

IC50 [2]: 740 nM
Ratio IC50 [3]: > 200
SMILES: O=S(=O)(Nc1ncns1)c1cc(F)c(Oc2ccc(Cl)cc2-c2ccc3nccnc3c2)cc1F
IC50 [1]: > 10000 nM
Ratio IC50 (Homo sapiens): > 2700
inhibition at 5 µM (hERG (KCNH2)): < 11%

IC50 [4]: 0.4 nM
IC50 [5]: 3080 nM
IC50 [6]: 4.2 nM
IC50 [7]: 11 nM
IC50 [8]: 0.2 nM
IC50 [2]: 26 nM
IC50 (Cytochrome P450 2C9): 170 nM
IC50 (Cytochrome P450 3A4): 77 nM
IC50 (Cytochrome P450 1A2): > 9000 nM
IC50 (Cytochrome P450 2D6): > 9000 nM
solubility kinetic [9]: 121 µM (≈ 64.8 µg/mL)
Papp A→B at 2 h, 10 µM [10]: 2.1 ×10⁻⁶ cm/s
Ratio [11]: 47
fraction unbound at 20 h, 10 µM [12]: 0.011
Cmax [13]: 2.9 µM
AUC(0-inf) [14]: 0.18 µM·h
half-life [15]: 7.8 min
clearance [16]: 177 mL/min/kg
Vd [17]: 1.4 L/kg
Cmax [18]: 5.3 µM
Tmax [19]: 3.6 min
AUC(0-inf) [20]: 13.5 µM·h
half-life [21]: 132 min
Kp [22]: 0.019
IC50 [23]: 0.4 nM
pKa at 100 µM [24]: 3.2
SMILES: Nc1noc2ccc(-c3cc(Cl)ccc3Oc3cc(F)c(S(=O)(=O)Nc4ncns4)cc3F)cc12 [listing 1 of 2 here]
IC50 [1]: 1380 nM
inhibition at 5 µM (hERG (KCNH2)): < 11%

Ratio IC50 [3]: > 60
SMILES: Nc1noc2ccc(-c3cc(Cl)ccc3Oc3cc(F)c(S(=O)(=O)Nc4ncns4)cc3F)cc12 [listing 2 of 2 here]
Activity (Rattus norvegicus [25]): Dose-dependent effect
Activity (Rattus norvegicus [26]): inactive
Activity (Rattus norvegicus [27]): Active
Activity (Rattus norvegicus [28]): inactive
Activity (Mus musculus [29]): inactive
Activity (Mus musculus [30]): Dose-dependent effect

IC50 [5]: 6380 nM
IC50 [6]: 0.2 nM
IC50 [31]: > 10000 nM
IC50 [7]: 0.8 nM
IC50 [32]: 3850 nM
IC50 [33]: 9330 nM
SMILES: Nc1nc2cc(-c3cc(Cl)ccc3Oc3cc(F)c(S(=O)(=O)Nc4ncns4)cc3F)ccc2[nH]1
IC50 [1]: > 10000 nM
Ratio IC50 (Homo sapiens): > 12000
inhibition at 5 µM (hERG (KCNH2)): < 11%

The remaining lines, values behind:

SMILES: Nc1noc2ccc(-c3cc(Cl)ccc3Oc3cc(F)c(S(=O)(=O)Nc4cscn4)cc3F)cc12
inhibition at 5 µM (hERG (KCNH2)): < 11%

SMILES: Nc1noc2ccc(-c3ccccc3Oc3cc(F)c(S(=O)(=O)Nc4ncns4)cc3F)cc12
inhibition at 5 µM (hERG (KCNH2)): < 11%

SMILES: O=S(=O)(Nc1ncns1)c1cc(F)c(Oc2ccc(Cl)cc2-c2cnc3n2CCNC3)cc1F
IC50 [1]: > 10000 nM
inhibition at 5 µM (hERG (KCNH2)): < 11%

SMILES: Nc1noc2ccc(CCOc3cc(F)c(S(=O)(=O)Nc4ncns4)cc3F)cc12
IC50 [4]: 241 nM
inhibition at 5 µM (hERG (KCNH2)): < 11%

SMILES: Nc1noc2ccc(-c3cc(Cl)ccc3Oc3cc(F)c(S(=O)(=O)NCc4ncccn4)cc3F)cc12
IC50 [4]: 5200 nM
